Test results: patent US20240382487A1, “NOVEL COPI/ARF1-LIPOLYSIS PATHWAY INHIBITOR AND COMPOUND FOR ERADICATING CANCER STEM CELLS AND INDUCING DAMP-MEDIATED ANTI-TUMOR IMMUNE RESPONSE” (FUDAN UNIVERSITY, priority 2020, published 2024)
Like-named read-outs stand apart in the source and are kept apart here.

How the values were obtained:
CT-26 colon cancer = assay: Vaccination model, drug-treated CT-26 cells in BALB/c mice; type: in vivo; set-up: tumor size, left side with drug treatment / tumors on right side after vaccination on left side: unit not given here; conditions: CT-26, BALB/c mice; for tumor size, left side with drug treatment: cells treated with 10 μM Du 102; for tumors on right side after vaccination on left side: untreated cells re-challenge
B16-F10 melanoma = assay: Vaccination model, drug-treated B16-F10 cells in C57B/6 mice; type: in vivo; set-up: unit not given here; conditions: B16-F10, C57B/6 mice; for tumor size, left side with drug treatment: cells treated with 10 μM Du 102
Arf1 = biological target: T1, Arf1 (Homo sapiens, UniProt P84077); assay: Active Arf1 Pull-Down and Detection Kit (GTP-bound Arf1); type: biochemical; conditions: liver cancer Huh-7 cell lysate; FIG. 1
T1 construct: Active Arf1 was detected by using The Thermo Scientific Pierce Active Arf1 Pull-Down and Detection Kit (Cat #16121) with liver cancer Huh-7 cell lysate; endogenous in cells; host or cells: Huh-7 liver cancer cells (lysate)
T1 sequence (P84077 whole entry): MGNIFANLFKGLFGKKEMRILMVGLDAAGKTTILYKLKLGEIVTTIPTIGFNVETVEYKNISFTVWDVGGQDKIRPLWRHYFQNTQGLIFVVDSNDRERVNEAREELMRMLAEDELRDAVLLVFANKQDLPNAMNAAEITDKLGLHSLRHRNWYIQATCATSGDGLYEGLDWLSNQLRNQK
Description: Active Arf1 was detected by using The Thermo Scientific Pierce Active Arf1 Pull-Down and Detection Kit (Cat #16121) with liver cancer Huh-7 cell lysate. It is a complete kit for selective enrichment and detection of GTP-bound Arf1 GTPase through specific protein interaction with the GGA3 protein-binding domain (FIG. 1).

[1] = tested on: liver tumors in MYC-ON mice; assay: MYC-ON liver tumor model; type: in vivo
Description: We used the Tet system to generate transgenic mice conditionally expressing the myc pro-oncogene in hepatocytes, […] myc/lap TTA (lt2-myc) (shachaf et al., 2004). We crossed tre-myc mice with a transgenic line, lap TTA. in which the liver activator protein (LAP) promoter drives the expression of tetracycline trans-activator protein (TTA) in hepatocytes. We confirmed this by discontinuing the feeding of doxycycline (myc-ON) activated myc transgene expression in 3-week-old mice. Subsequently. all transgenic mice overexpressing myc succumbed to liver tumors with a mean latency to tumor onset of 12 weeks, as previously reported (shachaf et al., 2004). In this lap TTA/tet-off myc conditional transgenic mouse model, myc overexpression in adult mice reproducibly induces liver cancer, similar to hepatocellular carcinoma and/or hepatoblastoma. The transgenic tumor invades the entire liver locally and is frequently associated with malignant peritoneal effusions that spread to the thoracic cavity by metastasis and invade the lung parenchyma.
For the mouse liver tumor model, mating cages and weaning cages were administrated by a grain based rodent diet (Bio-Serv. Cat #14-727-450) containing 200 mg/kg doxycycline, and the mice were induced tumors at 6 weeks of age, by changing to a normal diet. Mice were divided into three groups, control, Du 101 treated and du102 treated. The control group was given 100 by gavage using a feeding tube 100 μl/10 g body weight (BW) 20% DMSO+80% corn oil. Du 101 treated groups were treated with 25 mg/ml Du 101. The stock solution was diluted 1:4 with corn oil to make the working solution. Dul02 treatment groups were treated with 25 mg/ml du102 stock solution diluted 1:4 with corn oil to make working solutions. The mixed working solution was administered to mice by gavage using a feeding tube. Starting from the second week of myc-0n, 5 injections per week ([…]) were given for 4 weeks, mice were monitored every 2 days, and 10 weeks later mice were euthanized and analyzed for tumor growth.
For the myc-on liver tumor model, antibodies were i.p. Mg/kg) was injected once a week for 5 consecutive weeks, the first Doxycycline was discontinued weekly after injection. Antibodies used to treat mice were as follows: anti-CD4 (clone GK1.5, BioXcell, Cat #BE0003-1), anti-CD8 a (clone 2.43, BioXcell, Cat #BE0061) Or […] rat IgG (bioxcell, cat #be0094) isotype control antibody. From the second week of myc-on initiation lasted for 4 weeks, Du 102 and DMSO were administered by gavage needle as described above, mice were monitored every 2 days, and 10 weeks later mice were euthanized and analyzed for tumor growth.
For the myc-on liver tumor model, antibodies were i.p. Injection once a week for 5 weeks, and doxycycline was discontinued weekly after the first injection. Antibodies used to treat mice were as follows: 100 ug/mouse Armenian hamster anti mouse PD1 (J43, bioxcell, cat #be0033-2) and 100 ug/mouse Armenian hamster isotype IgG (bioxcell. cat #bp0091) was used as controls. For 4 weeks from the second week of myc-on, Du 102 and DMSO were administered by gavage needle as described above, mice were monitored every 2 days. and 10 weeks later mice were euthanized and analyzed for tumor growth. Coadministration of anti-PD-1 antibodies may allow the use of lower, less toxic doses of du102, thus avoiding known side effects.

liver cancer cell Huh7 = assay: In vitro cell line screening, Huh7; type: cell-based
Description: (§1) In different tumor cytotoxicity experiments in vitro (FIG. 2-FIG. 7), including colorectal cancer cell lines HT29 and LoVo cells, liver cancer cell Huh7, lung cancer cells H460 and A549, the arf1 inhibitor could all inhibit tumor cell growth (FIG. 2-FIG. 6), and there was a dose-dependent manner (FIG. 7).

IL-1β = IL-1β assay, CD11c+ DCs co-cultured with treated CT26 cells; type: cell-based; conditions: CT-26 colon cancer model, BALB/c mice; co-culture 2 days
Description: (§2) For IL-1 β Assay: seven days after CT26 cell lysate injection. CD11c+DCs were isolated from injected BALB/c mice and co cultured with CT26 cells treated with DMSO or du102. After 2 days, […] was measured in harvested cells (Table 11). For the IFN-y assay: CD11c^+ DC and CD8^+ T cells were isolated from injected BALB/c mice 7 days after CT26 cell lysate injection and co cultured with CT26 cells treated with DMSO or du102. After 2 days. IFN-y was measured in harvested cells (table 11).

[2] = tested on: colorectal cancer cell line HT29; assay: In vitro cell line screening, HT29; type: cell-based
Description: as §1

INFγ = assay: IFN-γ assay, CD11c+ DC and CD8+ T cells co-cultured with treated CT26 cells; type: cell-based; conditions: CT-26 colon cancer model, BALB/c mice; co-culture 2 days
Description: as §2

lung cancer cells A549 = assay: In vitro cell line screening, A549; type: cell-based
Description: as §1

With “1H-indolo-5-carbaldehyde 5,6,7,8,9,10-hexahydrocycloocta[4,5]thieno[2,3-d]pyrimidin-4-ylhydrazone [Du 102]” the “regression of both left- and right-sided tumours” value (CT-26 colon cancer; tables 3 and 4) was “almost complete regression”, the “tumor size, left side with drug treatment” value (“tumor size, left side” below) (CT-26 colon cancer; Day 0) was 0 and the “tumors on right side after vaccination on left side” value (from here on “tumors on right side”) (CT-26 colon cancer; Day 0) was 0. For the same substance, the “tumor size, left side” value (CT-26 colon cancer; Day 5) was 0, the “tumors on right side” value (CT-26 colon cancer; Day 5) was 0 and the “tumor size, left side” value (CT-26 colon cancer; Day 10) was 2. The “tumors on right side” value (CT-26 colon cancer; Day 10) was 0, the “tumor size, left side” value (CT-26 colon cancer; Day 15) was 8 and the “tumor size, left side” value (CT-26 colon cancer; Day 20) was 57. The “tumors on right side” value (CT-26 colon cancer; Day 20) was 3.7, the “tumor size, left side” value (CT-26 colon cancer; Day 25) was 81 and the “tumors on right side” value (CT-26 colon cancer; Day 25) was 7.6. The “tumor size, left side” value (CT-26 colon cancer; Day 30) was 178, the “tumors on right side” value (CT-26 colon cancer; Day 30) was 14.1 and the “tumors on right side” value (B16-F10 melanoma; Day 0) was 0. The “tumor size, left side” value (B16-F10 melanoma; Day 0) was 0, the “tumors on right side” value (B16-F10 melanoma; Day 5) was 0 and the “tumor size, left side” value (B16-F10 melanoma; Day 5) was 0. The “tumors on right side” value (B16-F10 melanoma; Day 10) was 0, the “tumor size, left side” value (B16-F10 melanoma; Day 10) was 2 and the “tumors on right side” value (B16-F10 melanoma; Day 15) was 0.6. The “tumor size, left side” value (B16-F10 melanoma; Day 15) was 8, the “tumors on right side” value (B16-F10 melanoma; Day 20) was 1.3 and the “tumor size, left side” value (B16-F10 melanoma; Day 20) was 57. The “tumors on right side” value (B16-F10 melanoma; Day 25) was 9.1, the “tumor size, left side” value (B16-F10 melanoma; Day 25) was 81 and the “tumors on right side” value (B16-F10 melanoma; Day 30) was 21.3. For the same substance, the “tumor size, left side” value (B16-F10 melanoma; Day 30) was 177, the “inhibition of arf1 activation” value (Arf1) was “potent inhibitors” and the “survival time of myc-on mice” value [1] was “prolonged the survival time”. The “anti-tumor effects (liver tumors)” value ([1]; Du102 + Anti-CD4) was 69.5, the “anti-tumor effects (liver tumors)” value ([1]; Du102 + Anti-CD4/CD8) was 89.7 and the number of tumors ([1]; Du102 + Anti-PD-1) was 4.4. For the same substance, the “anti-tumor effects (liver tumors)” value ([1]; Du102 + Isotype, Table 18) was 27.5, the number of tumors ([1]; Du102 + Isotype, Table 19) was 42.3 and the liver tumor numbers ([1]; gavage, 5 per week for 4 weeks, analyzed 10 weeks later) was 26.7. For the same substance, the tumor suppressive effect (liver cancer cell Huh7) was “Tumor suppression effect”, the tumor suppressive effect (liver cancer cell Huh7; listed as Dul02) was “effective tumor suppressive effects” and the IL-1β (IL-1β) was 954. The tumor suppressive effect [2] was “some tumor suppressive effect”, the tumor suppressive effect ([2]; listed as Dul02) was “effective tumor suppressive effects” and the INFγ (INFγ) was 623. For the same substance, the tumor suppressive effect (lung cancer cells A549) was “potency tumor suppressive effect” and the tumor suppressive effect (lung cancer cells A549; listed as Dul02) was “effective tumor suppressive effects”.
